The source of these data is the supplement of paper PMC10307832.

What all share (assay): relative viability (nuclei count vs DMSO), 5 days (fraction); higher = more cells survive
Compound in the test “EHT 1864 + Navitoclax”: C1COCCN1CC2=CC(=O)C(=CO2)OCCCCCSC3=C4C=CC(=CC4=NC=C3)C(F)(F)F [EHT 1864] + CC1(C)CCC(c2ccc(Cl)cc2)=C(CN2CCN(c3ccc(C(=O)NS(=O)(=O)c4ccc(N[C@H](CCN5CCOCC5)CSc5ccccc5)c(S(=O)(=O)C(F)(F)F)c4)cc3)CC2)C1 [Navitoclax] (partner 0.5 µM)
The essentials: (§1)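 Each reported value is a median over duplicate plates. It expresses relative viability: treated-well nuclei count divided by vehicle-well nuclei count. Lung cancer cell lines in 1536-well plates were dosed by pin tool a day after seeding, alone with one drug or with a fixed anchor-drug dose plus five library-drug doses (not always all listed) in √10 steps, and nuclei were counted after 5 days.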

Compound in the test “EHT 1864 + Crizotinib”: C1COCCN1CC2=CC(=O)C(=CO2)OCCCCCSC3=C4C=CC(=CC4=NC=C3)C(F)(F)F [EHT 1864] + C[C@@H](Oc1cc(-c2cnn(C3CCNCC3)c2)cnc1N)c1c(Cl)ccc(F)c1Cl [Crizotinib] (partner 1 µM)
The essentials: as §1

Compound in the test “EHT 1864 + Dasatinib”: C1COCCN1CC2=CC(=O)C(=CO2)OCCCCCSC3=C4C=CC(=CC4=NC=C3)C(F)(F)F [EHT 1864] + Cc1nc(Nc2ncc(C(=O)Nc3c(C)cccc3Cl)s2)cc(N2CCN(CCO)CC2)n1 [Dasatinib] (partner 0.075 µM)
The essentials: as §1

Compound in the test “EHT 1864 + Vorinostat”: C1COCCN1CC2=CC(=O)C(=CO2)OCCCCCSC3=C4C=CC(=CC4=NC=C3)C(F)(F)F [EHT 1864] + O=C(CCCCCCC(=O)Nc1ccccc1)NO [Vorinostat] (partner 1 µM)
An outline of the steps:
as §1

For NCI-H2087, the relative viability in the test with EHT 1864 + Navitoclax (first compound 0.04 µM) stood at 0.86; with EHT 1864 + Navitoclax (first compound 0.1265 µM), 0.894; with EHT 1864 + Navitoclax (first compound 0.4 µM), 0.865; with EHT 1864 + Navitoclax (first compound 1.265 µM) it was 0.829; in the test with EHT 1864 + Navitoclax (first compound 4 µM), 0.743; with EHT 1864 + Crizotinib (first compound 0.04 µM), 0.872. Besides, the relative viability with EHT 1864 + Crizotinib (first compound 0.1265 µM) was 0.662; with EHT 1864 + Crizotinib (first compound 0.4 µM), 0.698; with EHT 1864 + Crizotinib (first compound 1.265 µM) it was 0.737; in the test with EHT 1864 + Crizotinib (first compound 4 µM), 0.753; with EHT 1864 + Dasatinib (first compound 0.04 µM) it was 0.851; with EHT 1864 + Dasatinib (first compound 0.4 µM), 0.758. Besides, the relative viability amounted to 0.846 in the test with EHT 1864 + Dasatinib (first compound 1.265 µM); 0.825 with EHT 1864 + Dasatinib (first compound 4 µM); 0.436 with EHT 1864 + Vorinostat (first compound 0.04 µM); 0.798 with EHT 1864 + Vorinostat (first compound 0.4 µM); 0.727 with EHT 1864 + Vorinostat (first compound 1.265 µM); 0.572 with EHT 1864 + Vorinostat (first compound 4 µM).

With NCI-H2228, the relative viability with EHT 1864 + Navitoclax (first compound 0.04 µM) stood at 1.08; with EHT 1864 + Navitoclax (first compound 0.1265 µM) it was 0.847; in the test with EHT 1864 + Navitoclax (first compound 0.4 µM) it was 0.755; in the test with EHT 1864 + Navitoclax (first compound 1.265 µM) it was 0.836; with EHT 1864 + Navitoclax (first compound 4 µM), 0.827; with EHT 1864 + Crizotinib (first compound 0.04 µM), 0.523. Moreover, the relative viability with EHT 1864 + Crizotinib (first compound 0.1265 µM) turned out to be 0.479; in the test with EHT 1864 + Crizotinib (first compound 0.4 µM), 0.509; with EHT 1864 + Crizotinib (first compound 1.265 µM), 0.341; with EHT 1864 + Crizotinib (first compound 4 µM) it was 0.361; in the test with EHT 1864 + Dasatinib (first compound 0.04 µM), 0.485; in the test with EHT 1864 + Dasatinib (first compound 0.1265 µM), 0.456. Further, the relative viability was found to be 0.418 with EHT 1864 + Dasatinib (first compound 0.4 µM); 0.448 with EHT 1864 + Dasatinib (first compound 1.265 µM); 0.496 with EHT 1864 + Dasatinib (first compound 4 µM); 0.658 in the test with EHT 1864 + Vorinostat (first compound 0.04 µM); 0.641 with EHT 1864 + Vorinostat (first compound 0.1265 µM); 0.571 with EHT 1864 + Vorinostat (first compound 0.4 µM). Further, in the test with EHT 1864 + Vorinostat (first compound 4 µM), the relative viability is 0.365.

As for NCI-H727, the relative viability with EHT 1864 + Navitoclax (first compound 0.04 µM) turned out to be 0.554; with EHT 1864 + Navitoclax (first compound 0.1265 µM) it was 0.507; with EHT 1864 + Navitoclax (first compound 0.4 µM), 0.348; with EHT 1864 + Navitoclax (first compound 4 µM), 0.324; in the test with EHT 1864 + Crizotinib (first compound 0.04 µM) it was 0.803; with EHT 1864 + Crizotinib (first compound 0.1265 µM), 0.713. For the same cell line, the relative viability with EHT 1864 + Crizotinib (first compound 0.4 µM) was found to be 0.699; in the test with EHT 1864 + Crizotinib (first compound 4 µM), 0.786; in the test with EHT 1864 + Dasatinib (first compound 0.04 µM), 0.397; in the test with EHT 1864 + Dasatinib (first compound 0.1265 µM), 0.334; with EHT 1864 + Dasatinib (first compound 0.4 µM), 0.344; in the test with EHT 1864 + Dasatinib (first compound 1.265 µM), 0.371. Moreover, the relative viability came out at 0.343 with EHT 1864 + Dasatinib (first compound 4 µM); 1.47 with EHT 1864 + Vorinostat (first compound 0.04 µM); 1.31 with EHT 1864 + Vorinostat (first compound 0.1265 µM); 1.07 with EHT 1864 + Vorinostat (first compound 0.4 µM); 1.26 with EHT 1864 + Vorinostat (first compound 1.265 µM); 1.29 with EHT 1864 + Vorinostat (first compound 4 µM).

For the cell line NCI-H650, the relative viability with EHT 1864 + Crizotinib (first compound 0.04 µM) came out at 0.71; with EHT 1864 + Crizotinib (first compound 0.4 µM) it was 0.805; in the test with EHT 1864 + Crizotinib (first compound 1.265 µM) it was 0.7; with EHT 1864 + Crizotinib (first compound 4 µM), 0.698; with EHT 1864 + Dasatinib (first compound 0.04 µM) it was 0.427; in the test with EHT 1864 + Dasatinib (first compound 0.1265 µM), 0.381. The relative viability with EHT 1864 + Dasatinib (first compound 0.4 µM) is 0.427; with EHT 1864 + Dasatinib (first compound 1.265 µM), 0.459; with EHT 1864 + Dasatinib (first compound 4 µM), 0.459; with EHT 1864 + Vorinostat (first compound 0.04 µM), 0.497; with EHT 1864 + Vorinostat (first compound 0.1265 µM) it was 0.308; with EHT 1864 + Vorinostat (first compound 0.4 µM) it was 0.413. Besides, the relative viability with EHT 1864 + Vorinostat (first compound 1.265 µM) worked out at 0.457; with EHT 1864 + Vorinostat (first compound 4 µM) it was 0.478.

Take NCI-H520: the relative viability with EHT 1864 + Navitoclax (first compound 0.04 µM) was determined as 0.999; in the test with EHT 1864 + Navitoclax (first compound 0.1265 µM), 1.07; with EHT 1864 + Navitoclax (first compound 0.4 µM), 1.06; with EHT 1864 + Navitoclax (first compound 1.265 µM), 1.08; with EHT 1864 + Navitoclax (first compound 4 µM), 1.06; with EHT 1864 + Crizotinib (first compound 0.04 µM) it was 0.657. The relative viability was 0.599 with EHT 1864 + Crizotinib (first compound 0.1265 µM); 0.642 with EHT 1864 + Crizotinib (first compound 0.4 µM); 0.733 with EHT 1864 + Crizotinib (first compound 1.265 µM); 0.804 in the test with EHT 1864 + Crizotinib (first compound 4 µM); 0.218 in the test with EHT 1864 + Dasatinib (first compound 0.04 µM); 0.171 with EHT 1864 + Dasatinib (first compound 0.1265 µM). The relative viability with EHT 1864 + Dasatinib (first compound 0.4 µM) worked out at 0.205; in the test with EHT 1864 + Dasatinib (first compound 1.265 µM) it was 0.211; in the test with EHT 1864 + Dasatinib (first compound 4 µM), 0.192; with EHT 1864 + Vorinostat (first compound 0.04 µM), 0.734; in the test with EHT 1864 + Vorinostat (first compound 0.1265 µM), 0.628; with EHT 1864 + Vorinostat (first compound 0.4 µM) it was 0.696. The values for the relative viability in the test with EHT 1864 + Vorinostat (first compound 1.265 µM) and with EHT 1864 + Vorinostat (first compound 4 µM) were 0.758 and 0.715, respectively.

For EBC-1, the relative viability amounted to 0.381 with EHT 1864 + Navitoclax (first compound 0.04 µM); 0.329 with EHT 1864 + Navitoclax (first compound 0.1265 µM); 0.449 with EHT 1864 + Navitoclax (first compound 0.4 µM); 0.431 in the test with EHT 1864 + Navitoclax (first compound 1.265 µM); 0.429 with EHT 1864 + Navitoclax (first compound 4 µM); 0.18 with EHT 1864 + Crizotinib (first compound 0.04 µM). Besides, the relative viability with EHT 1864 + Crizotinib (first compound 0.1265 µM) worked out at 0.181; with EHT 1864 + Crizotinib (first compound 0.4 µM), 0.219; in the test with EHT 1864 + Crizotinib (first compound 1.265 µM), 0.205; in the test with EHT 1864 + Crizotinib (first compound 4 µM), 0.196.

In the case of NCI-H661, the relative viability with EHT 1864 + Crizotinib (first compound 0.04 µM) is 1.03; in the test with EHT 1864 + Crizotinib (first compound 0.1265 µM), 1.03; in the test with EHT 1864 + Crizotinib (first compound 0.4 µM), 0.882; in the test with EHT 1864 + Crizotinib (first compound 1.265 µM), 0.85; in the test with EHT 1864 + Crizotinib (first compound 4 µM), 0.879; with EHT 1864 + Dasatinib (first compound 0.04 µM), 0.883. Moreover, the relative viability worked out at 0.828 with EHT 1864 + Dasatinib (first compound 0.1265 µM); 0.919 with EHT 1864 + Dasatinib (first compound 0.4 µM); 0.8 with EHT 1864 + Dasatinib (first compound 1.265 µM); 0.725 with EHT 1864 + Dasatinib (first compound 4 µM); 0.836 with EHT 1864 + Vorinostat (first compound 0.04 µM); 0.685 with EHT 1864 + Vorinostat (first compound 0.1265 µM). Further, the relative viability with EHT 1864 + Vorinostat (first compound 0.4 µM) was 0.773; in the test with EHT 1864 + Vorinostat (first compound 1.265 µM), 0.697; with EHT 1864 + Vorinostat (first compound 4 µM), 0.712.

Take NCI-H1299: the relative viability in the test with EHT 1864 + Navitoclax (first compound 0.04 µM) is 1.02; in the test with EHT 1864 + Navitoclax (first compound 0.1265 µM), 1.02; with EHT 1864 + Navitoclax (first compound 0.4 µM) it was 1.05; in the test with EHT 1864 + Navitoclax (first compound 1.265 µM), 0.986; with EHT 1864 + Navitoclax (first compound 4 µM) it was 0.984; with EHT 1864 + Crizotinib (first compound 0.04 µM), 0.928. In addition, the relative viability worked out at 0.975 in the test with EHT 1864 + Crizotinib (first compound 0.1265 µM), 0.95 with EHT 1864 + Crizotinib (first compound 0.4 µM), 0.925 with EHT 1864 + Crizotinib (first compound 1.265 µM) and 0.901 with EHT 1864 + Crizotinib (first compound 4 µM).

As to LK-2, the relative viability with EHT 1864 + Navitoclax (first compound 0.04 µM) turned out to be 0.839; in the test with EHT 1864 + Navitoclax (first compound 0.1265 µM), 0.674; with EHT 1864 + Navitoclax (first compound 0.4 µM), 0.847; in the test with EHT 1864 + Navitoclax (first compound 1.265 µM) it was 0.94; with EHT 1864 + Navitoclax (first compound 4 µM) it was 0.784; with EHT 1864 + Crizotinib (first compound 0.04 µM) it was 0.232. Moreover, the relative viability was 0.23 with EHT 1864 + Crizotinib (first compound 0.1265 µM); 0.225 in the test with EHT 1864 + Crizotinib (first compound 0.4 µM); 0.241 with EHT 1864 + Crizotinib (first compound 1.265 µM); 0.221 in the test with EHT 1864 + Crizotinib (first compound 4 µM); 0.36 with EHT 1864 + Dasatinib (first compound 0.04 µM); 0.353 in the test with EHT 1864 + Dasatinib (first compound 0.4 µM). Further, the relative viability with EHT 1864 + Dasatinib (first compound 1.265 µM) is 0.246; with EHT 1864 + Dasatinib (first compound 4 µM) it was 0.257; in the test with EHT 1864 + Vorinostat (first compound 0.04 µM) it was 0.312; in the test with EHT 1864 + Vorinostat (first compound 0.1265 µM), 0.265; with EHT 1864 + Vorinostat (first compound 0.4 µM) it was 0.206; with EHT 1864 + Vorinostat (first compound 1.265 µM), 0.253. Besides, the relative viability with EHT 1864 + Vorinostat (first compound 4 µM) was found to be 0.284.
